The values that follow come from patent publication US5668159A, “1,3,4-thiadiazoles and 1,3,4-oxadiazoles as IIb/IIIa antagonists” (The DuPont Merck Pharmaceutical Company, priority 1996, dated 1997).

Counter-ions that a name gives are not always drawn.

The assay relates to platelet aggregation (platelet rich plasma (PRP)). Put plainly: Platelet Aggregation Assay (inhibition of agonist-induced platelet aggregation in platelet rich plasma). The assay is classed as cell-based. The settings on record: with esterase, ester prodrugs preincubated with 100 IU/mL porcine liver esterase 2 hours at 37° C., human PRP, 100 μM ADP, read-out: Platelet Aggregation Assay IC50 (with esterase). As to the method: Platelet Aggregation Assay: Venous blood was obtained from the arm of a healthy human donor who was drug-free and aspirin-free for at least two weeks prior to blood collection. Blood was collected into 10 mL citrated Vacutainer tubes. The blood was centrifuged for 15 minutes at 150× g at room temperature, and platelet-rich plasma (PRP) was removed. The remaining blood was centrifuged for 15 minutes at 1500× g at room temperature, and platelet-poor plasma (PPP) was removed. Samples were assayed on a aggregometer (PAP-4 Platelet Aggregation Profiler), using PPP as the blank (100% transmittance). 200 μL of PRP was added to each micro test tube, and transmittance was set to 0%. 20 μL of various agonists (ADP, collagen, arachidonate, epinephrine, thrombin) were added to each tube, and the aggregation profiles were plotted (% transmittance versus time). The results are expressed as % inhibition of agonist-inducedplatelet aggregation. For the IC50 evaluation, the test compounds were added at various concentrations prior to the activation of the platelets.
Ester prodrugs were preincubated (10^-3 M F.C.) with 100 IU/mL Porcine liver esterase (Sigma Chemical Co., St. Louis, Mo., #E-3128) for 2 hours at 37° C. Aliquots are then diluted in 0.1M Tris, p H 7.4, to the desired concentrations. Aliquots of 20 μl of the esterase pretreated prodrugs are added to 200 μl of human platelet rich plasma. Samples were placed in platelet profiler (aggregometer) for 8 minutes at 37° C., followed by the addition of 100 μM Adenosine Diphosphate, (Sigma Chemical Co., St. Louis, Mo., #A-6521), to induce platelet aggregation. Platelet aggregation was allowed to proceed for 5 minutes. Percent inhibition is calculated using percent aggregation in the presence of the test compound divided by percent aggregation of control, times 100. This value is subtracted from 100, yielding percent inhibition. Calculation of IC50 is performed on a Texas Instruments TI59 with an IC50 program.
Table A below sets forth the antiplatelet activity of representative compounds of the present invention. The indicated compounds were tested for their ability to inhibit platelet aggregation (using platelet rich plasma (PRP)). The IC50 value (the concentration of antagonist which inhibits platelet aggregation by 50% relative to a control lacking the antagonist) is shown. In Table A the IC50 values are expressed as: +++=IC50 of <10 μM; ++=IC50 of […]; +=IC50 of 50-100 μM (μM=micromolar).
`COC(=O)[C@H](Cc1ccccc1)NC(=O)CSc1nnc(-c2ccc(NC(=N)N)cc2)o1` [Example 392, Methyl N-[2-{2-(4-guanidinophenyl)-1,3,4-oxadiazol-5-ylthio}-acetyl]-(S)-phenylalanine TFA salt]: the IC50 lay within 10 to 50 µM. Turning to `CCOC(=O)[C@H](Cc1ccccc1)NC(=O)CSc1nnc(-c2ccc(C(=N)N)cc2)o1` [Example 399, Ethyl N-[2-{2-(4-amidinophenyl)-1,3,4-oxadiazol-5-ylthio}-acetyl]-(S)-phenylalanine HCl salt], the IC50 fell in the range of 10 to 50 µM. With `CCCCOC(=O)NC[C@H](NC(=O)CSc1nnc(-c2ccc(C(=N)N)cc2)s1)C(=O)OC` [Example 440, Methyl N^2-[2-{2-(4-amidinophenyl)-1,3,4-thiodiazol-5-ylthio}-acetyl]-N^3-(n-butyloxycarbonyl)-2,3-(S)-diaminopropionate HCl salt], the IC50 was less than 10 µM.
